Consider 29 compounds from ChEMBL document CHEMBL1138457, “Design and synthesis of an orally bioavailable and selective peptide epoxyketone proteasome inhibitor (PR-047)” (J Med Chem, 2009).

Data set [1] is described as follows: Inhibition of chymotrypsin-like activity of human 20S proteasome by spectrofluorimetry.
The nature of data set [2]: Inhibition of chymotrypsin-like activity of 20S proteasome in human MOLT4 cells after 1 hr by […]. Particulars: MOLT-4, 1 h. In kind it is cell-based. On the technique in general: In ATP-based viability assays light output follows the ATP content of the culture.
Data set [3] in a line: Cytotoxicity against human MESSA cells assessed as cell viability after 72 hrs by CellTiter-Glo luminescent assay. The data set is classed as functional, cell-based. Particulars: MES-SA.
The nature of data set [4]: Cytotoxicity against multidrug resistance transporter expressing doxorubicin resistant human MESSA cells assessed as cell viability after 72 hrs by CellTiter-Glo luminescent assay. Particulars: MES-SA. In kind it is functional, cell-based.
Data set [5] has as its system Mus musculus. Briefly: Inhibition of chymotrypsin-like activity of 20S proteasome in BALB/c mouse adrenal gland 40 mg/kg, po after 1 hr. In kind it is functional. Further details: scale not given: the % may be the effect or the level left.
The nature of data set [6]: Chemical stability in simulated intestinal fluid assessed as compound remaining at 4 uM after 15 mins. In kind it is physicochemical. Particulars: read-out: Stability.
Data set [7] in a line: Metabolic stability in mouse liver microsomes assessed as extraction ratio at 1 uM. The data set is classed as ADME, Microsome.
For data set [8], the system named is Mus musculus. Briefly: Inhibition of chymotrypsin-like activity of 20S proteasome in BALB/c mouse adrenal gland at 20 mg/kg, po after 1 hr. In kind it is functional. Further details: scale not given: the % may be the effect or the level left.

Bounds are passed on as bounds.

On to `CC(C)C[C@H](NC(=O)c1cnccn1)C(=O)N[C@@H](Cc1ccccc1)C(=O)N[C@@H](CC(C)C)C(=O)[C@@]1(C)CO1`, for which the IC50 in data set [1] was 0.752 µM; in data set [2] it was over 1 µM; in data set [3] it was over 1 µM; in data set [4] it was over 1 µM.

Turning to `CC(C)C[C@H](NC(=O)[C@H](Cc1ccccc1)NC(=O)[C@H](Cc1cscn1)NC(=O)c1cc(CN2CCOCC2)on1)C(=O)[C@@]1(C)CO1`, the IC50 amounted to 0.0069 µM in data set [1], 0.059 µM in data set [2], 0.0079 µM in data set [3] and 0.841 µM in data set [4]. In data set [5], this compound yielded an Activity of 93%. Further, the remaining at 0.25 h, 4 µM in data set [6] is 15%.

Regarding `CC(C)C[C@H](NC(=O)c1nccn1C)C(=O)N[C@@H](Cc1ccccc1)C(=O)N[C@@H](CC(C)C)C(=O)[C@@]1(C)CO1`, the IC50 was found to be 0.122 µM in data set [1], 0.161 µM in data set [2], 0.067 µM in data set [3] and 0.164 µM in data set [4].

Take `CC(C)C[C@H](NC(=O)c1cccs1)C(=O)N[C@@H](Cc1ccccc1)C(=O)N[C@@H](CC(C)C)C(=O)[C@@]1(C)CO1`: the IC50 in data set [1] came to 0.01 µM; in data set [2], 0.04 µM; in data set [3] it was 0.034 µM; in data set [4], 0.12 µM.

Consider `CC(C)C[C@H](NC(=O)[C@H]1CCCO1)C(=O)N[C@@H](Cc1ccccc1)C(=O)N[C@@H](CC(C)C)C(=O)[C@@]1(C)CO1`, for which the IC50 was determined as 0.034 µM in data set [1], 0.154 µM in data set [2], 0.069 µM in data set [3] and 0.11 µM in data set [4].

On to `CC(C)C[C@H](NC(=O)c1ccn(C)n1)C(=O)N[C@@H](Cc1ccccc1)C(=O)N[C@@H](CC(C)C)C(=O)[C@@]1(C)CO1`, for which the IC50 is 0.076 µM in data set [1], 0.29 µM in data set [2], 0.137 µM in data set [3] and 0.205 µM in data set [4].

As to `COCc1cc(C(=O)N[C@@H](CC(C)C)C(=O)N[C@@H](Cc2ccccc2)C(=O)N[C@@H](CC(C)C)C(=O)[C@@]2(C)CO2)no1`, the IC50 was 0.0012 µM in data set [1], 0.0081 µM in data set [2], 0.023 µM in data set [3] and 0.028 µM in data set [4].

With `CC(C)C[C@H](NC(=O)[C@H](Cc1ccccc1)NC(=O)CN1CCOCC1)C(=O)[C@@]1(C)CO1`, the IC50 in data set [1], in data set [2], in data set [3] and in data set [4] was over 1 µM in each case.

In the case of `Cc1cc(C(=O)N[C@@H](Cc2ccncc2)C(=O)N[C@@H](Cc2ccccc2)C(=O)N[C@@H](CC(C)C)C(=O)[C@@]2(C)CO2)no1`, the concentration for half-maximal inhibition (IC50) in data set [1] is 0.0028 µM; in data set [2], 0.0086 µM; in data set [3], 0.0086 µM; in data set [4], 0.271 µM. This compound showed an Activity in data set [5] of 28%. In data set [6], the remaining at 0.25 h, 4 µM was 90%.

As to `CC(C)C[C@H](NC(=O)c1ccncc1)C(=O)N[C@@H](Cc1ccccc1)C(=O)N[C@@H](CC(C)C)C(=O)[C@@]1(C)CO1`, the half-maximal inhibitory concentration (IC50) in data set [1] is 0.02 µM; in data set [2] it was 0.055 µM; in data set [3] it was 0.033 µM; in data set [4], over 1 µM.

On to `CC[C@H](NC(=O)[C@H](COC)NC(=O)c1cc(C)on1)C(=O)N[C@@H](CC(C)C)C(=O)[C@@]1(C)CO1`, for which the IC50 in data set [1] came out at 0.054 µM; in data set [2], 0.248 µM; in data set [3], 0.092 µM; in data set [4], 0.468 µM. In data set [6], the remaining at 0.25 h, 4 µM is 100%. Moreover, the hepatic extraction ratio at 1 µM in data set [7] worked out at 0.47 dimensionless ratio. For the same compound, in data set [8], the Activity is 90%.

As to `COC[C@H](NC(=O)c1cc(CN2CCOCC2)on1)C(=O)N[C@@H](Cc1ccccc1)C(=O)N[C@@H](CC(C)C)C(=O)[C@@]1(C)CO1`, the IC50 in data set [1] amounted to 0.0057 µM; in data set [2], 0.026 µM; in data set [3], 0.013 µM; in data set [4] it was 0.147 µM. In data set [5], this compound returned an Activity of 57%. Moreover, the remaining at 0.25 h, 4 µM in data set [6] is 80%.

Consider `Cc1cc(C(=O)N[C@@H](Cc2cccnc2)C(=O)N[C@@H](Cc2ccccc2)C(=O)N[C@@H](CC(C)C)C(=O)[C@@]2(C)CO2)no1`, for which the half-inhibitory concentration (IC50) in data set [1] worked out at 0.0016 µM; in data set [2], 0.027 µM; in data set [3], 0.039 µM; in data set [4] it was 0.543 µM. In data set [5], this compound had an Activity of 70%. In data set [6], the remaining at 0.25 h, 4 µM is 90%.

Consider `COCC[C@H](NC(=O)c1cc(C)on1)C(=O)N[C@@H](Cc1ccccc1)C(=O)N[C@@H](CC(C)C)C(=O)[C@@]1(C)CO1`, for which the half-maximal inhibitory concentration (IC50) in data set [1] was determined as 0.026 µM; in data set [2], 0.069 µM; in data set [3], 0.164 µM; in data set [4] it was 0.286 µM. Further, the Activity in data set [5] is given as 47%. For the same compound, the remaining at 0.25 h, 4 µM in data set [6] was 80%.

Regarding `CC(C)C[C@H](NC(=O)[C@H](Cc1ccccc1)NC(=O)[C@H](Cc1ccccn1)NC(=O)c1cc(CN2CCOCC2)on1)C(=O)[C@@]1(C)CO1`, the IC50 in data set [1] stood at 0.0052 µM; in data set [2] it was 0.031 µM; in data set [3], 0.011 µM; in data set [4], 0.421 µM. In data set [5], this compound displayed an Activity of 92%. Also, the remaining at 0.25 h, 4 µM in data set [6] was 20%.

For `Cc1cc(NC(=O)N[C@@H](CC(C)C)C(=O)N[C@@H](Cc2ccccc2)C(=O)N[C@@H](CC(C)C)C(=O)[C@@]2(C)CO2)no1`, the IC50 in data set [1] is 0.013 µM; in data set [2] it was 0.047 µM; in data set [3], 0.182 µM; in data set [4] it was over 1 µM.

On to `CC(C)C[C@H](NC(=O)c1cnco1)C(=O)N[C@@H](Cc1ccccc1)C(=O)N[C@@H](CC(C)C)C(=O)[C@@]1(C)CO1`, for which the IC50 in data set [1] came out at 0.027 µM; in data set [2], 0.084 µM; in data set [3] it was 0.159 µM; in data set [4] it was 0.505 µM.

`CC(C)C[C@H](NC(=O)c1cc(C(C)C)on1)C(=O)N[C@@H](Cc1ccccc1)C(=O)N[C@@H](CC(C)C)C(=O)[C@@]1(C)CO1`: the IC50 in data set [1] is 0.0063 µM; in data set [2], 0.017 µM; in data set [3], 0.063 µM; in data set [4], 0.03 µM.

Turning to `CC(C)C[C@H](NC(=O)c1ccon1)C(=O)N[C@@H](Cc1ccccc1)C(=O)N[C@@H](CC(C)C)C(=O)[C@@]1(C)CO1`, the IC50 is 0.0074 µM in data set [1], 0.05 µM in data set [2], 0.073 µM in data set [3] and 0.123 µM in data set [4].

Take `CC(C)C[C@H](NC(=O)[C@@H]1CCCO1)C(=O)N[C@@H](Cc1ccccc1)C(=O)N[C@@H](CC(C)C)C(=O)[C@@]1(C)CO1`: the half-inhibitory concentration (IC50) in data set [1] stood at 0.042 µM; in data set [2] it was 0.18 µM; in data set [3] it was 0.13 µM; in data set [4], 0.159 µM.

For the compound `CC(C)C[C@H](NC(=O)c1ncc[nH]1)C(=O)N[C@@H](Cc1ccccc1)C(=O)N[C@@H](CC(C)C)C(=O)[C@@]1(C)CO1`, the IC50 in data set [1] was 0.107 µM; in data set [2], 0.271 µM; in data set [3] it was 0.136 µM; in data set [4] it was over 1 µM.

Take `CC(C)C[C@H](NC(=O)c1ccnnc1)C(=O)N[C@@H](Cc1ccccc1)C(=O)N[C@@H](CC(C)C)C(=O)[C@@]1(C)CO1`: the IC50 in data set [1] is 0.012 µM; in data set [2], 0.05 µM; in data set [3] it was 0.018 µM; in data set [4], over 1 µM.

Turning to `COCC[C@H](NC(=O)c1cc(CN2CCOCC2)on1)C(=O)N[C@@H](Cc1ccccc1)C(=O)N[C@@H](CC(C)C)C(=O)[C@@]1(C)CO1`, the IC50 in data set [1] amounted to 0.019 µM; in data set [2], 0.042 µM; in data set [3], 0.024 µM; in data set [4], 1.15 µM. Besides, the Activity in data set [5] is 81%. Moreover, in data set [6], the remaining at 0.25 h, 4 µM was 90%.

For the compound `CC(C)C[C@H](NC(=O)c1cc[nH]n1)C(=O)N[C@@H](Cc1ccccc1)C(=O)N[C@@H](CC(C)C)C(=O)[C@@]1(C)CO1`, the IC50 in data set [1] is 0.036 µM; in data set [2] it was 0.188 µM; in data set [3], 0.109 µM; in data set [4] it was over 1 µM.

With `COC[C@H](NC(=O)c1cc(C)on1)C(=O)N[C@@H](CC#N)C(=O)N[C@@H](CC(C)C)C(=O)[C@@]1(C)CO1`, the IC50 stood at 0.04 µM in data set [1], 0.091 µM in data set [2], 0.029 µM in data set [3] and 0.941 µM in data set [4]. Moreover, the remaining at 0.25 h, 4 µM in data set [6] is 100%. For the same compound, the hepatic extraction ratio at 1 µM in data set [7] amounted to 0.28 dimensionless ratio. In addition, in data set [8], the Activity was found to be 40%.

Regarding `CC(C)C[C@H](NC(=O)c1ccoc1)C(=O)N[C@@H](Cc1ccccc1)C(=O)N[C@@H](CC(C)C)C(=O)[C@@]1(C)CO1`, the 50% inhibitory concentration (IC50) in data set [1] was 0.034 µM; in data set [2], 0.116 µM; in data set [3] it was 0.054 µM; in data set [4], 0.125 µM.

As for `CC(C)C[C@H](NC(=O)c1ccno1)C(=O)N[C@@H](Cc1ccccc1)C(=O)N[C@@H](CC(C)C)C(=O)[C@@]1(C)CO1`, the IC50 turned out to be 0.0058 µM in data set [1], 0.065 µM in data set [2], 0.058 µM in data set [3] and 0.082 µM in data set [4].

Consider `CC(C)C[C@H](NC(=O)[C@H](Cc1ccccc1)NC(=O)[C@H](Cc1ccncc1)NC(=O)c1cc(CN2CCOCC2)on1)C(=O)[C@@]1(C)CO1`, for which the IC50 in data set [1] is 0.0051 µM; in data set [2] it was 0.014 µM; in data set [3] it was 0.0087 µM; in data set [4], over 1 µM. The Activity in data set [5] was found to be 96%. Besides, in data set [6], the remaining at 0.25 h, 4 µM was 60%.

On to `Cc1cc(C(=O)N[C@@H](Cc2ccccn2)C(=O)N[C@@H](Cc2ccccc2)C(=O)N[C@@H](CC(C)C)C(=O)[C@@]2(C)CO2)no1`, for which the half-maximal inhibitory concentration (IC50) came out at 0.013 µM in data set [1], 0.078 µM in data set [2], 0.045 µM in data set [3] and 0.219 µM in data set [4]. Moreover, in data set [5], the Activity worked out at 23%. Besides, in data set [6], the remaining at 0.25 h, 4 µM was 20%.

By IC50 is commonly meant the point on the concentration scale where inhibition reaches its midpoint.
